Test results published in patent publication US8183270B2, “Insecticidal N-substituted (2-substituted-1,3-thiazol)alkyl sulfoximines” (Dow AgroSciences, LLC, priority 2006, dated 2012).

How the values were obtained:
[1] = system: cotton aphid (Aphis gossypii); assay: Insecticidal test for cotton aphid in foliar spray assay; type: in vivo; conditions: foliar spray on squash cotyledons, 3 days after treatment, Corrected % Control (Abbott)
Experimental: The compounds identified in the foregoing examples (compounds 1-5) and in Table 1 (compounds 6-18) were tested against cotton aphid using procedures described hereinafter. Insecticidal Test for Cotton Aphid (Aphis gossypii) in Foliar Spray Assay Squash with fully expanded cotyledon leaves were trimmed to one cotyledon per plant and infested with cotton aphid (wingless adult and nymph) 1 day prior to chemical application. Each plant was examined before chemical application to ensure proper infestation (ca. 30-70 aphids per plant). Compounds (2 mg) were dissolved in 2 ml of acetone:methanol (1:1) solvent, forming stock solutions of 1000 ppm. The stock solutions were diluted 5× with 0.025% Tween 20 in H2O to obtain the highest test solution at 200 ppm. A lower test concentration (50 ppm) was prepared by making sequential a 4× dilution from the 200 ppm solution with a diluent consisting 80 parts of 0.025% Tween 20 in H2O and 20 parts of acetone:methanol (1:1). A hand-held Devilbiss sprayer was used to apply the spray solutions until runoff to both sides of the squash cotyledon leaves. Four plants (4 replications) were used for each concentration of each compound. Reference plants (solvent check) were sprayed with the diluent only. Treated plants were held in a holding room for 3 days at approximately 23° C. and 40% RH before the number of live aphids on each plant was recorded. Insecticidal activity was measured by Corrected % Control using Abbott's correction formula and the values for the lower test concentrations are presented in Table 1: Corrected % Control=100*(X−Y)/X • where X=No. of live aphids on solvent check plants • Y=No. of live aphids on treated plants CA 200 refers to % control at 200 ppm against cotton aphid in foliar spray tests, CA 50 refers to % control at 50 ppm against cotton aphid in foliar spray tests, In each case of Table 2 the rating scale is as follows: […]

| SMILES | CA 50 (% control at 50 ppm against cotton aphid in foliar spray tests) [1] | CA 200 (% control at 200 ppm against cotton aphid in foliar spray tests) [1] | melting point [°C] |
| --- | --- | --- | --- |
| CS(=O)(Cc1cnc(C(F)(F)F)s1)=NC#N (stereo not drawn) [Compound 1, Methyl(oxido){[2-(trifluoromethyl)-1,3-thiazol-5-yl]methyl}-λ^4-sulfanylidenecyanamide] | A (90-100) | A (90-100) | 123 to 124 |
| CC(C)(c1cnc(C(F)(F)F)s1)S(C)(=O)=NC#N (stereo not drawn) [Compound 2, Methyl(oxido){1-methyl-1-[2-(trifluoromethyl)-1,3-thiazol-5-yl]ethyl}-λ^4-sulfanylidenecyanamide] | C (70-79) | A (90-100) |  |
| CC(c1cnc(C(F)(F)F)s1)S(C)(=O)=NC#N (stereo not drawn) [Compound 3, Methyl(oxido){1-[2-(trifluoromethyl)-1,3-thiazol-5-yl]ethyl}-λ^4-sulfanylidenecyanamide] | A (90-100) | A (90-100) |  |
| N#CN=S1(=O)CCCC1Cc1cnc(C(F)(F)F)s1 (stereo not drawn) [Compound 4, 1-Oxo-2-(2-trifluoromethyl-thiazol-5-ylmethyl)-tetrahydro-1-λ^6-thiophen-1-ylidene-cyanamide] | A (90-100) | A (90-100) |  |
| CS(=O)(Cc1csc(C(F)(F)F)n1)=NC#N (stereo not drawn) [Compound 5, Methyl(oxido){[2-(trifluoromethyl)-1,3-thiazol-4-yl]methyl}-λ^4-sulfanylidenecyanamide] | E (50-59) | C (70-79) | 66 to 68 |
